Measured values as given in US20140370084A1, “ESTRADIOL FORMULATIONS AND THERAPIES” (TherapeuticsMD, Inc., priority 2013, published 2014).

Assay: Particle size analysis of micronized progesterone API (Beckman Device, ULM)
Format: physicochemical
Details: sample API, Fraunhofer optical model
Excerpt: Particle size may be determined in any suitable manner. For example, a Beckman Coulter LS 13 320 Laser Diffraction Particle Size Analyzer (the “Beckman Device”) may be used to determine particle size. As described above, particle size may be represented by various metrics, for example, through an X50 particle size, and/or X90 particle size, or similar descriptions of particle size.
The Beckman Device may be used with various modules for introducing a sample for analysis. The Beckman Device may be used with the LS 13 320 Universal Liquid Module (“ULM”). The ULM is capable of suspending samples in the size range of 0.017 μm to 2000 μm. The ULM is a liquid based module that allows for delivery of the sample to the sensing zone. The ULM recirculates the sample through the Beckman Device. The ULM comprises two hoses, one for fluid delivery and another for waste. The total volume used may be 125 mL or less. A sample mass of from about 1 mg to about 10 g may be used. The ULM may interact with the Beckman Device via pins that fit into slots on the ULM. The ULM may use a variety of suspension fluids, for example, water, butonol, ethanol, chloroform, heptanes, toluene, propanol, COULTER Type 1B Dispersant (“Coulter 1B”), and a variety of other suspension fluids. Surfactants may also be used, though pump speed should be adjusted to prevent excessive bubbling. […]

X25: 1.590 μm
X75: 7.442 μm
Structure (SMILES): CC(=O)[C@H]1CC[C@H]2[C@@H]3CCC4=CC(=O)CC[C@]4(C)[C@H]3CC[C@]12C [Progesterone, progesterone]
